Reference: BindingDB's records for doi:10.1016/j.bmcl.2009.03.129 (Wyeth Research, 2009)

Target: 3-phosphoinositide-dependent protein kinase 1 (PDPK1) (Homo sapiens) (UniProt O15530)
Test: Inhibition of PDK1

IC50: > 10 µM
Compound: CCOC(=O)c1cnn2c(-c3cccc(NC(=O)c4cccc(C(F)(F)F)c4)c3)ccnc12 [ethyl 7-(3-(3-(trifluoromethyl)benzamido)phenyl)pyrazolo[1,5-a]pyrimidine-3-carboxylate]
